Measurements: PMC11990524, “Design and Synthesis of Novel 6-(Substituted phenyl)-[1,3]dioxolo[4′,5′:4,5]benzo[1,2-d]thiazole Compounds as Tyrosinase Inhibitors: In Vitro and In Vivo Insights” (Molecules, 2025)

What was measured:
mushroom tyrosinase = mushroom tyrosinase (Agaricus bisporus, UniProt C7FF04); test: Mushroom tyrosinase inhibitory activity assay (L-dopa or L-tyrosine as substrate); assay type: biochemical
Experimental: In the inhibition experiments, L-dopa and L-tyrosine were used as enzyme substrates.
The plate was incubated at 37 °C for 30 min, and absorbance of dopachrome formation was recorded spectrophotometrically at 475 nm using a VersaMax® Elisa (VE) microplate reader (Molecular Devices, San Jose, CA, USA) to determine tyrosinase inhibition activity. A VE microplate reader was used in all subsequent experiments to measure optical density. All experiments were carried out independently three times.

B16F10 cell tyrosinase = molecular target: T1, B16F10 cell tyrosinase (Mus musculus, UniProt P11344); test: In situ cellular tyrosinase activity assay using B16F10 cells; assay type: cell-based, murine
T1 construct: endogenous in cells; host or cells: B16F10 murine cells, stimulated with α-MSH and IBMX
T1 sequence (P11344 19-533): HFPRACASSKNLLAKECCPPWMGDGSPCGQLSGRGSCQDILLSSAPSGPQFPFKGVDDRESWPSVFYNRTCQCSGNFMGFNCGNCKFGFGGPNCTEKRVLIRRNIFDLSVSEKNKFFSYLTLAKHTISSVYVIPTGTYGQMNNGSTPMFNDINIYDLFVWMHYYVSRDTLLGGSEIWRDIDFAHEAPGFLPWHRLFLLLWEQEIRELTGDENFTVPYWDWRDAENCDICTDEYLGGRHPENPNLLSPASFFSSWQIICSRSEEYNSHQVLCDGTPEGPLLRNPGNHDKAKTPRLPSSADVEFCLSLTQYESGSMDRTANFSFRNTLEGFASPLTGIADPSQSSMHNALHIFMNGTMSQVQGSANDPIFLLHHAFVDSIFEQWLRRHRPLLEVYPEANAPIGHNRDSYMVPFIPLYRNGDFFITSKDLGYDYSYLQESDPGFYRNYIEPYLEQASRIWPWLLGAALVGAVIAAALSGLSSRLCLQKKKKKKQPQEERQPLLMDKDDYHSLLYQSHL
Experimental: After 72 h of incubation, the cells were treated with an excessive amount of L-dopa for 2 h, and then the melanin-stained cells were photographed, and the pigmented areas of the cells were determined using an ATTO CS Analyzer (ATTO, Tokyo, Japan).
B16F10 (3 × 10^3 cells/well) cells in a 24-well plate were incubated for 24 h in a 5% CO2 incubator maintained at 37 °C. […] Stimulators (α-MSH and IBMX; 1 μM and 200 μM, respectively) were exposed to cells 1 h after treatment with the test sample, and the cells were incubated for 72 h in a 5% CO2 incubator. The cells were fixed for 40 min using paraformaldehyde solution (4%) (Sigma-Aldrich, St. Louis, MO, USA), washed with PBS (pH 7.4), and permeabilized for 2 min using Triton X-100 (0.1%). After washing twice with PBS, each well was exposed to L-dopa solution (500 μL; 2 mM). After incubation for 2 h, images of the cells stained with excess melanin were obtained using a camera connected to a microscope (Motic, Hong Kong).

B16F10 cells = test: Cellular melanin content assay using B16F10 cells; assay type: cell-based, murine
Experimental: After 72 h of incubation, the melanin content was evaluated by measuring the optical density at 405 nm.
The plate was incubated in a CO2 incubator for 1 h. Each well was treated with stimulators (α-MSH and IBMX; 1 μM and 200 μM, respectively) and incubated in a CO2 incubator for 72 h. The incubated cells were rinsed twice with PBS (pH 7.4). 1N–NaOH solution (100 μL) was added to each well and warmed at 60 °C for 1 h. The lysates were transferred to each well of a 96-well plate. The optical density was measured at 405 nm.

[1] = molecular target: T2, B16F10 cellular tyrosinase (Mus musculus, UniProt P11344); test: Cellular tyrosinase activity assay using B16F10 cells; assay type: cell-based, murine; conditions: 1, 2, and 5 μM, IBMX 200 μM plus α-MSH 1 μM, 72 h
T2 construct: endogenous in cells; host or cells: B16F10 murine cells, stimulated with α-MSH and IBMX
T2 sequence (P11344 19-533): T1 sequence (P11344 19-533)
Experimental: After 72 h of incubation, the B16F10 cellular tyrosinase inhibitory activity was evaluated by measuring the optical density at 475 nm.
To evaluate the effect of compounds 5 and 9 on cellular tyrosinase activity, B16F10 cells (5000 cells/well) were inoculated in a 6-well plate and cultured for 24 h under the same conditions as the cell culture. […] The plate was incubated in a 5% CO2 incubator maintained at 37 °C for 1 h. Each well was treated with stimulators (1 μM α-MSH [Alomone Labs^TM, Jerusalem, Israel] and 200 μM IBMX [Thermo Fisher, Rockford, IL, USA]) and incubated in a CO2 incubator for 72 h. The cells were rinsed twice with PBS (pH 7.4) and treated with 100 μL lysis buffer solution consisting of Triton X-100 (1%; 5 μL), phosphate buffer (50 mM; pH 6.5; 90 μL), and phenylmethanesulfonyl fluoride (2 mM; 5 μL). The lysates were placed for 30 min at −80 °C. After centrifuging at 10,000 g and 4 °C for 10 min, an aliquot (80 μL) of the supernatants was transferred to each well of a 96-well plate, and 20 μL of L-dopa solution (10 mM) was added to each well. The optical density at 475 nm was recorded every min for 10 min to determine cellular tyrosinase activity.

Chain of mushroom tyrosinase (C7FF04 2-392): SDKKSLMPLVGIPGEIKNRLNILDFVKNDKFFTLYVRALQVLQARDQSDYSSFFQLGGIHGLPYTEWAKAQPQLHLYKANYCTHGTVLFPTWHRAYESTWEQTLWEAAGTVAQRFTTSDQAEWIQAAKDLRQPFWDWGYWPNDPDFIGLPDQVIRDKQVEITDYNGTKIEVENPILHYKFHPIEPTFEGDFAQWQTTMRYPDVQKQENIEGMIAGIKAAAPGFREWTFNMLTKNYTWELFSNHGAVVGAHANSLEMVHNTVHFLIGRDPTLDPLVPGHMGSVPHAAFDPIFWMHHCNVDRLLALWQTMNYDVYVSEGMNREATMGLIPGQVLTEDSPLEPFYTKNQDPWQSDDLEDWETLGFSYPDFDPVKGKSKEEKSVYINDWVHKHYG

Oc1ccc(-c2nc3cc4c(cc3s2)OCO4)c(O)c1 [Compound 9, 4-([1,3]Dioxolo[4′,5′:4,5]benzo[1,2-d]thiazol-6-yl)benzene-1,3-diol]
IC50 values regardless of the substrate used (in words) (mushroom tyrosinase; L-dopa and L-tyrosine): nanomolar
inhibition at 2 µM (mushroom tyrosinase; substrate L-dopa, 2.0 μM, read-out: Inhibition (%) measured at 2.0 μM (converted)): 76.1%
inhibition at 0.4 µM (mushroom tyrosinase; substrate L-tyrosine, 0.4 μM, read-out: Inhibition (%) measured at 0.4 μM (converted)): 71.8%
melanin production-inhibitory potency in situ, comparison (B16F10 cell tyrosinase; 5 μM): greater than that of 5
number of cells strongly stained with melanin (in situ tyrosinase) (B16F10 cell tyrosinase; 1, 2, and 5 μM, IBMX plus α-MSH, 72 h, L-dopa 2 h): evidently reduced the number of cells strongly stained with melanin
melanin content (B16F10 cells; 1, 2, and 5 μM, IBMX 200 μM plus α-MSH 1 μM, 72 h): significantly reduced the stimulator-induced melanin contents
melanin production inhibition compared with kojic acid (B16F10 cells; same concentration (5 μM)): inhibited melanin production more potently than kojic acid
cellular tyrosinase activity [1]: significantly decreased the cellular tyrosinase activity
